Reference: patent US11622965B2, “Methods for treating lymphoid malignancies” (ZHEJIANG DTRM BIOPHARMA CO. LTD., priority 2017, dated 2023)
Several values for one entry are separate records, joined by “and”; a condition that tells them apart may be missing. Equal entries are not always repeated. Entries after “also recorded” stand apart in the source; their conditions may differ.

Key:
[1] = test system: 104 proteins (e.g., transporters, cell receptors, ion channels, and enzymes); test: off-target screenings against 104 proteins
From the text: (§1) Both patents are incorporated by reference herein in their entirety.

[2] = test system: relapsed/refractory CLL and B-cell lymphomas; test: China and U.S. first-in-human monotherapy trials, overall conclusions
From the text: The primary endpoint of the trials was safety, while the secondary endpoints of the trials were anti-tumor activity and pharmacokinetic parameters. Patients enrolled in the trials met the following criteria: relapsed/refractory CLL and B-cell lymphoma with no available effective therapies, ≥18 years of age, and an Eastern Cooperative Oncology Group (ECOG) score≤1. […] The 3+3 dose-escalation method was used.
Relapsed/refractory B-cell lymphoma patients who met the aforementioned enrollment criteria were enrolled without randomization. […] The patients were required to stay in the hospital for 24 hours after the first dosing. […] The first 28 days of treatment was considered DLT period.
(§5) Studies on the 200 mg and 300 mg cohorts were conducted in a standard 3+3 design.
The response rate, including the partial response and complete response rate, was defined according to the Revised International Working Group Criteria for non-Hodgkin's lymphoma (Cheson et al., J Clin Oncol 25:579-86 (2007)). Drug-related adverse events (AEs), including DLT, non-hematologic AEs and hematologic AEs were recorded. […] The PK indexes of single dose administration included AUClast, AUCO-∞, Cmax, tmax, t1/2, CL/F and Vd/F. The PK indexes of steady state under continuous administration included AUCss, Cmax,ss and tmax,ss.

[3] = China Phase I trial of Compound A monotherapy: pharmacokinetics; assay type: in vivo, human
Method: (§2) The pharmacokinetics of Compound A was also evaluated.
(§3) Patients who met the following inclusion criteria were enrolled in the trials in China: i) age≥18 years, no gender limits, and provide the informed consent form; ii) B-cell lymphoma classification is based on WHO classified definition, including CLL, small lymphocytic lymphoma (SLL); CLL with 17p-; MCL; WM; DLBCL, etc.; iii) measurable lesion: NHL requires at least one≥2 cm two-dimensional lesion diameter, CLL≥5000 leukemia cells/mm^3, WM IgM≥1000 mg/dL, bone marrow lymph plasma-like cells infiltration, histopathologically diagnosed as DLBCL; iv) patients failed in lymphoma treatment at least once and have no standard therapeutic options; DLBCL patients who are not suitable for or reject autologous stem cell transplantation; and v) ECOG (Eastern Cooperative Oncology Group) performance status 0˜1. Meanwhile, patients who met any one of the following criteria were excluded: i) disease with changes of pathological tissue types (including large cell transformation); ii) patients received other BTK inhibitor therapy (China only); and iii) patients with HIV infection, or HBs-Ag or HBc-Ab positive.
(§4) No intrapatient dose escalation of Compound A was permitted.

[4] = U.S. Phase Ia trial of Compound A monotherapy: pharmacokinetics; assay type: in vivo; conditions: human, plasma, oral, Compound A Plasma Level
Method: as §5
Drug-related adverse events (AEs), including DLT, non-hematologic AEs and hematologic AEs were recorded. […] The PK indexes of single dose administration included AUClast, AUCO-∞, Cmax, tmax, t1/2, CL/F and Vd/F. The PK indexes of steady state under continuous administration included AUCss, Cmax,ss and tmax,ss.

[5] = China Phase I trial of Compound A monotherapy: safety; assay type: in vivo, human
Method: as §2, §3, §4

FGFR2 = FGFR2 (Homo sapiens, UniProt P21802); test: 46 kinase panel; assay type: biochemical
From the text: as §1

EGFR kinase = EGFR kinase (Homo sapiens, UniProt P00533); test: 46 kinase panel; assay type: biochemical
From the text: as §1

JAK3 = molecular target: T1, JAK3 (Homo sapiens, UniProt P52333); test: 46 kinase panel; assay type: biochemical
T1 sequence (P52333 1-1124): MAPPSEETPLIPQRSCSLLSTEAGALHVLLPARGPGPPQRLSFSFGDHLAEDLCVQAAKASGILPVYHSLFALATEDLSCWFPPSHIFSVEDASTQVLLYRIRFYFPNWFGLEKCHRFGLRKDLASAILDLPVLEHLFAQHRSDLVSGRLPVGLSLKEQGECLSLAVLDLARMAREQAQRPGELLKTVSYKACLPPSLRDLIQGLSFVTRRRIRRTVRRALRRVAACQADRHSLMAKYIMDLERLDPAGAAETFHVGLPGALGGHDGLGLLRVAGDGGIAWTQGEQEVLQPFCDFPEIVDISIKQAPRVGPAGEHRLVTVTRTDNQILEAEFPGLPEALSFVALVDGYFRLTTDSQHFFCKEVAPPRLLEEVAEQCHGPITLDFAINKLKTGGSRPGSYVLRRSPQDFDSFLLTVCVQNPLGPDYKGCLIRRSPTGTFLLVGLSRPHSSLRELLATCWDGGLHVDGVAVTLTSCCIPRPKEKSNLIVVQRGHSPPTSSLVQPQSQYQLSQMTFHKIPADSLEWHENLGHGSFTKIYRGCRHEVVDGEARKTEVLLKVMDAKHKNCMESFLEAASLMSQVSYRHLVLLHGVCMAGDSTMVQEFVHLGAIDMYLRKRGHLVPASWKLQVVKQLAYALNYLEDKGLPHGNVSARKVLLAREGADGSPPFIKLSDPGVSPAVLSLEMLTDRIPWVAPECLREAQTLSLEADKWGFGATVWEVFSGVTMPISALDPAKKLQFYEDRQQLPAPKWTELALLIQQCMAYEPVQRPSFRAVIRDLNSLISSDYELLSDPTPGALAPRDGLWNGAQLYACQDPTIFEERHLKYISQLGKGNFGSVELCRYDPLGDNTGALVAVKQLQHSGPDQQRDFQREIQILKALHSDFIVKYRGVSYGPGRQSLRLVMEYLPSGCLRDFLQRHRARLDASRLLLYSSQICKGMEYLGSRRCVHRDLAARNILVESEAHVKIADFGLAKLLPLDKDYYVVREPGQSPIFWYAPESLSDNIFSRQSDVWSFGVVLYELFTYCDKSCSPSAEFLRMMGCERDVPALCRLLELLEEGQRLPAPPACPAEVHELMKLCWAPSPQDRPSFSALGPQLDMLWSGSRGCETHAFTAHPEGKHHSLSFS
From the text: as §1

FGFR1 = FGFR1 (Homo sapiens, UniProt P11362); test: 46 kinase panel; assay type: biochemical
From the text: as §1

[6] = 13 patients, 50-400 mg daily, 28 day dosing schedule

Chain of EGFR kinase (P00533 25-1210): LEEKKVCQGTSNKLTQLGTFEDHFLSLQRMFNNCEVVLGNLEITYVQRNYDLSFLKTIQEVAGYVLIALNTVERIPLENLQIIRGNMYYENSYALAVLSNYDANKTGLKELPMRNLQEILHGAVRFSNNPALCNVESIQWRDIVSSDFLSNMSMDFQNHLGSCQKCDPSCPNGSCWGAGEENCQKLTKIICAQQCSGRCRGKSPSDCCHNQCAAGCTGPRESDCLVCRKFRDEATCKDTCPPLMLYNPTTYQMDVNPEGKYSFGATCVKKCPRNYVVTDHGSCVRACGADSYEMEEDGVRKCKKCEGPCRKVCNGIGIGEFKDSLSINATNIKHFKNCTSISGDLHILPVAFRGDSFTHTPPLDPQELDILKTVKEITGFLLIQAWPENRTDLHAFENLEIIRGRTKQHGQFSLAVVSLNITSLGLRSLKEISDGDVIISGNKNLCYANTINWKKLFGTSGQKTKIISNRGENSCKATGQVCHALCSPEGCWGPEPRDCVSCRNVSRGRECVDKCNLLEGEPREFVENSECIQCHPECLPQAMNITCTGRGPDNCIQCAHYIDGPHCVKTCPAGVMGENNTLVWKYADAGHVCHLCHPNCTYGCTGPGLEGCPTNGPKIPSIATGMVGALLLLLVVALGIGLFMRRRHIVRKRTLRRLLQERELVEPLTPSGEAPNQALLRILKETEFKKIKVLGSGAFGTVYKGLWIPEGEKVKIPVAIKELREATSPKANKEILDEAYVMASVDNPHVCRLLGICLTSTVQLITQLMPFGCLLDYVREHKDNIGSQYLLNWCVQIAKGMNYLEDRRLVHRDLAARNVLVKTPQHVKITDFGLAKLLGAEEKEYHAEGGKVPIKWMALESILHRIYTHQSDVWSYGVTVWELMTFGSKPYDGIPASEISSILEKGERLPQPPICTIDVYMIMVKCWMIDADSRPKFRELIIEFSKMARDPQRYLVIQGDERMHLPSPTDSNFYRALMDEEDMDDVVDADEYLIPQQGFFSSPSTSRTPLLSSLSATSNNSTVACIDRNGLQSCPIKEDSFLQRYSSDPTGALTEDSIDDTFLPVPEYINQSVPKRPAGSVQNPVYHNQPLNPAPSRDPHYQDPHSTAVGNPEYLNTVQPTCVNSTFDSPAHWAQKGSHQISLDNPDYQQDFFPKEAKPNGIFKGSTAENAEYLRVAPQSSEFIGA
Chain of FGFR1 (P11362 22-822, species assumed): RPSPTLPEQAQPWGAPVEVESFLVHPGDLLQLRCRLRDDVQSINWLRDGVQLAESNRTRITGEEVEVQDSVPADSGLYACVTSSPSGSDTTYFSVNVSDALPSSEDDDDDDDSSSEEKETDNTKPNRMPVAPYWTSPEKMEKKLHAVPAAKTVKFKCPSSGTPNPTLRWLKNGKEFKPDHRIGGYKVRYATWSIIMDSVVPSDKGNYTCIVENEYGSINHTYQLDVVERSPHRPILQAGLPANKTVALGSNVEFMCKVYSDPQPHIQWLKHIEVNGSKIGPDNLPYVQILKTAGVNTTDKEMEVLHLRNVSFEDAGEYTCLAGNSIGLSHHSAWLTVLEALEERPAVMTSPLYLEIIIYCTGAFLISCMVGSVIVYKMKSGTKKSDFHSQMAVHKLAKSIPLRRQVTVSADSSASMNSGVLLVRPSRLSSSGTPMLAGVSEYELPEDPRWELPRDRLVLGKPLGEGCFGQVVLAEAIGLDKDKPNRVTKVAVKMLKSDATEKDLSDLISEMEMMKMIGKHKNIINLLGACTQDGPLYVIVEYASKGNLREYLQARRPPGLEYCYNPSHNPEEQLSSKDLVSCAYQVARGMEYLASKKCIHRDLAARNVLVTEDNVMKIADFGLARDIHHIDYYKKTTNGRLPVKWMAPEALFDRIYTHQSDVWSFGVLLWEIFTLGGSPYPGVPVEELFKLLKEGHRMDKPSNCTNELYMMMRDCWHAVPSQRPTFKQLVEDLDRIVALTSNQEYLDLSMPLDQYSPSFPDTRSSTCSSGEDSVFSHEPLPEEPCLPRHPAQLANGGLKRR
Chain of FGFR2 (P21802 22-821, species assumed): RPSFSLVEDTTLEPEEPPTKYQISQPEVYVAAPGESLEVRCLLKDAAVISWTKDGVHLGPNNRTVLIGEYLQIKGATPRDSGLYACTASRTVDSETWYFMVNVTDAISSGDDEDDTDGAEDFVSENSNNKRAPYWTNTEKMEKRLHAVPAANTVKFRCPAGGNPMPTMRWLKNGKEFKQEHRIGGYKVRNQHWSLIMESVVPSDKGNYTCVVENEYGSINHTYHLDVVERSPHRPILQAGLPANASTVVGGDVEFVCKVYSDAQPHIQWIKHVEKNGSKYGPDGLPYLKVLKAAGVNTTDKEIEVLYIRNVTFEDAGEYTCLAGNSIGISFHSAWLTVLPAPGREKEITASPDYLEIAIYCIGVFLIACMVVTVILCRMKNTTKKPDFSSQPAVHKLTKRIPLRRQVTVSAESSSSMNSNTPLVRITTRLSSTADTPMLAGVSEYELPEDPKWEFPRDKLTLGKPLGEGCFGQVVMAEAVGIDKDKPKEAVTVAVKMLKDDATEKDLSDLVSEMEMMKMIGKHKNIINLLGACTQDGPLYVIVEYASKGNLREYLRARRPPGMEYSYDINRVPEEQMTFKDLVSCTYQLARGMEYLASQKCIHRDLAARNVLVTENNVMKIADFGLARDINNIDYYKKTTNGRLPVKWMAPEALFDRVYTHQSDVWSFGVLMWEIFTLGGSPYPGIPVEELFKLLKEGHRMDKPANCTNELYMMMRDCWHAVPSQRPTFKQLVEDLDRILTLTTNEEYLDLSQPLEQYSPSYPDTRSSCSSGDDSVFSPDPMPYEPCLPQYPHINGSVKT

C=CC(=O)N1CC[C@@H](n2nc(-c3ccc(Oc4c(F)c(F)cc(F)c4F)cc3F)c3c(N)ncnc32)C1 [Compound A, 1-((R)-3-(4-amino-3-(2-fluoro-4-(2,3,5,6-tetrafluorophenoxy)phenyl)-1H-pyrazolo[3,4-d]pyrimidin-1-yl)pyrrolidin-1-yl)prop-2-en-1-one]
off-target inhibitory activities [1]: no off-target inhibitory activities | cycles of monotherapy tolerated ([2]; China and U.S. trials): up to 23 cycles | maximum tolerated dose ([2]; Compound A monotherapy, China and U.S. trials): had not been reached | exposures to Compound A ([2]; all patients at all of the dose levels): adequate exposures | efficacy in WM, MZL, and SLL/CLL patients ([2]; orally 50-400 mg once daily): preliminary efficacy was observed; also recorded: Efficacy of the Compound has also been observed | safety and tolerability ([2]; patients with relapsed/refractory CLL and B-cell lymphomas, China and U.S. trials): safe and well tolerated | Compound A Plasma Levels ([3]; Day 1, 100 mg, 2 h): 107 ng/mL and 150 ng/mL | Compound A Plasma Levels ([3]; Day 1, 100 mg, 6 h): 22.8 ng/mL and 29.4 ng/mL | Compound A Plasma Levels ([3]; Day 1, 400 mg, 4 h): 243 ng/mL and 184 ng/mL | Compound A Plasma Levels ([3]; Day 1, 400 mg, 6 h): 107 ng/mL and 130 ng/mL | Compound A Plasma Levels ([3]; Day 8, 100 mg, 2 h): 135 ng/mL and 83.0 ng/mL | Compound A Plasma Levels ([3]; Day 8, 100 mg, 24 h): 1.73 ng/mL and 1.27 ng/mL | Compound A Plasma Levels ([3]; Day 8, 200 mg, 0 h): 5.13 ng/mL and 3.53 ng/mL | Compound A Plasma Levels ([3]; Day 8, 200 mg, 1 h): 239 ng/mL | Compound A Plasma Levels ([3]; Day 8, 200 mg, 2 h): 273 ng/mL and 295 ng/mL | Compound A Plasma Levels ([3]; Day 8, 400 mg, 4 h): 214 ng/mL and 217 ng/mL | concentration at 0 h ([3]; human, plasma, oral, 50 mg, Compound A Plasma Levels, Day 1, 50 mg, 0 h): 0 ng/mL | concentration at 24 h ([3]; human, plasma, oral, 50 mg, Compound A Plasma Levels, Day 1, 50 mg, 24 h): 0 ng/mL | concentration at 24 h ([3]; human, plasma, oral, 50 mg, Compound A Plasma Levels, Day 8, 50 mg, 24 h): 0 ng/mL | concentration at 0 h ([3]; human, plasma, oral, 100 mg, Compound A Plasma Levels, Day 1, 100 mg, 0 h): 0 ng/mL | concentration at 2 h ([3]; human, plasma, oral, 100 mg, Compound A Plasma Levels, Day 1, 100 mg, 2 h): 192 ng/mL | concentration at 6 h ([3]; human, plasma, oral, 100 mg, Compound A Plasma Levels, Day 1, 100 mg, 6 h): 29.1 ng/mL | concentration at 2 h ([3]; human, plasma, oral, 100 mg, Compound A Plasma Levels, Day 8, 100 mg, 2 h): 166 ng/mL | concentration at 24 h ([3]; human, plasma, oral, 100 mg, Compound A Plasma Levels, Day 8, 100 mg, 24 h): 1.34 ng/mL | concentration at 0 h ([3]; human, plasma, oral, 200 mg, Compound A Plasma Levels, Day 1, 200 mg, 0 h): 0 ng/mL | concentration at 0 h ([3]; human, plasma, oral, 200 mg, Compound A Plasma Levels, Day 8, 200 mg, 0 h): 3.69 ng/mL | concentration at 1 h ([3]; human, plasma, oral, 200 mg, Compound A Plasma Levels, Day 8, 200 mg, 1 h): 369 ng/mL | concentration at 2 h ([3]; human, plasma, oral, 200 mg, Compound A Plasma Levels, Day 8, 200 mg, 2 h): 537 ng/mL | concentration at 0 h ([3]; human, plasma, oral, 400 mg, Compound A Plasma Levels, Day 1, 400 mg, 0 h): 0 ng/mL | concentration at 4 h ([3]; human, plasma, oral, 400 mg, Compound A Plasma Levels, Day 1, 400 mg, 4 h): 134 ng/mL | concentration at 6 h ([3]; human, plasma, oral, 400 mg, Compound A Plasma Levels, Day 1, 400 mg, 6 h): 85.9 ng/mL | concentration at 4 h ([3]; human, plasma, oral, 400 mg, Compound A Plasma Levels, Day 8, 400 mg, 4 h): 159 ng/mL | concentration at 0 h ([4]; 50 mg, Day 1, 50 mg): 0 ng/mL | concentration at 0.5 h ([4]; 50 mg, Day 1, 50 mg): 2.84 ng/mL | concentration at 1 h ([4]; 50 mg, Day 1, 50 mg): 26.9 ng/mL | concentration at 2 h ([4]; 50 mg, Day 1, 50 mg): 63.4 ng/mL | concentration at 4 h ([4]; 50 mg, Day 1, 50 mg): 15.3 ng/mL | concentration at 6 h ([4]; 50 mg, Day 1, 50 mg): 6.44 ng/mL | concentration at 24 h ([4]; 50 mg, Day 1, 50 mg): 0 ng/mL | concentration at 0 h ([4]; 100 mg, Day 1, 100 mg): 9.04 ng/mL | concentration at 0.5 h ([4]; 100 mg, Day 1, 100 mg): 44.9 ng/mL | concentration at 1 h ([4]; 100 mg, Day 1, 100 mg): 53.3 ng/mL | concentration at 2 h ([4]; 100 mg, Day 1, 100 mg): 21.3 ng/mL | concentration at 4 h ([4]; 100 mg, Day 1, 100 mg): 13.3 ng/mL | concentration at 6 h ([4]; 100 mg, Day 1, 100 mg): 13.3 ng/mL | concentration at 24 h ([4]; 100 mg, Day 1, 100 mg): 3.06 ng/mL | concentration at 0 h ([4]; 200 mg, Day 1, 200 mg): 0 ng/mL | concentration at 0.5 h ([4]; 200 mg, Day 1, 200 mg): 0 ng/mL | Grade 2, 4 or 5 hematologic events [5]: No Grade 2, 4 or 5 hematologic events occurred | Grade 2, 4 or 5 non-hematologic events [5]: No Grade 2, 4 or 5 non-hematologic events occurred | anemia, patients [5, 6]: 23.1% | leucopenia, patients [5, 6]: 23.1% | neutropenia, patients [5, 6]: 23.1% | dose-limiting toxicity ([5]; 50-400 mg daily): No dose-limiting toxicity occurred | grade of the majority of drug-related AEs ([5]; 28 day dosing schedule): grade 1 | Grade 1 alanine aminotransferase (ALT) elevation, patients ([5]; one patient): 7.7% | Grade 1 neutropenia, patients ([5]; one patient): 7.7% | Grade 3 pneumonia, patients ([5]; one patient): 7.7% | Grade 3 neutropenia, patients ([5]; two patients): 15.4% | inhibition of FGFR2 (FGFR2): partial inhibition | inhibition of EGFR (EGFR kinase; 46 kinase panel): partial inhibition | IC50 (EGFR kinase; read-out: IC50 against EGFR kinase): 110 nM | inhibition of JAK3 (JAK3): partial inhibition | inhibition of FGFR1 (FGFR1): partial inhibition
